Laboratory results reported in DBAASP.
≈ marks a conversion by molar mass, not a printed value. Where “and” joins values, the source holds several entries; their conditions need not be identical. Identical values can stand only once.

How the values were obtained:
Test in all cases: ≥ marks a high value that may be exact or a test limit, other limits are often not marked, values filed in µg/mL are converted to µM
[1] = tested on: Streptococcus pneumoniae BCRC 10794
[2] = tested on: Pseudomonas putida ATCC 17426
[3] = tested on: Escherichia coli ATCC 27325
[4] = tested on: Streptococcus mutans ATCC 25175
[5] = tested on: Saccharomyces cerevisiae ATCC 44774
[6] = tested on: Candida albicans ATCC 10231
[7] = tested on: Bacillus subtilis ATCC 62037
[8] = tested on: Staphylococcus aureus ATCC 15752
[9] = tested on: Salmonella enterica subsp. enterica serovar Enteritidis ATCC 13076
[10] = tested on: Proteus mirabilis CICC 22931
[11] = tested on: Staphylococcus aureus PCM 2054
[12] = tested on: Candida albicans CMCC 98001
[13] = tested on: Staphylococcus aureus PMC 1650
[14] = tested on: Fusobacterium nucleatum CGMCC 1.2526
[15] = tested on: Lactobacillus acidophilus CGMCC 1.1854
[16] = tested on: Staphylococcus epidermidis CICC 23664
[17] = tested on: Staphylococcus epidermidis PCM 521
[18] = tested on: Candida tropicalis CCM 8264
[19] = tested on: Candida glabrata CCM 8270
[20] = tested on: Enterococcus faecalis CGMCC 1.595
[21] = tested on: Bacillus cereus
[22] = tested on: Bacillus cereus AS1.126
[23] = tested on: Escherichia coli AS1.349
[24] = tested on: Streptococcus mutans CGMCC 1.2500
[25] = tested on: Escherichia coli PCM 2057
[26] = tested on: Staphylococcus aureus AS1.72
[27] = tested on: Bacillus subtilis
[28] = tested on: Enterococcus faecium CGMCC 1.2334
[29] = tested on: Candida parapsilosis CCM 8260
[30] = tested on: Enterobacter cloacae CGMCC 1.58
[31] = tested on: Candida krusei CCM 8271
[32] = tested on: Candida albicans CCM 8186
[33] = tested on: Candida albicans PCM 2566
[34] = tested on: Streptococcus sanguinis CGMCC 1.2497
[35] = tested on: Staphylococcus epidermidis PCM 2118
[36] = tested on: Streptococcus salivarius CGMCC 1.2498
[37] = tested on: Pseudomonas aeruginosa CGMCC 1.860
[38] = tested on: Pseudomonas aeruginosa PCM 499
[39] = tested on: Klebsiella pneumoniae subsp. pneumoniae CGMCC 1.176
[40] = tested on: Staphylococcus aureus DSM 1104
[41] = tested on: Bacillus subtilis ATCC 6633
[42] = tested on: Kocuria rhizophila DSM 348
[43] = tested on: Micrococcus luteus DSM 1790
[44] = tested on: Escherichia coli DSM 1103
[45] = tested on: Escherichia coli DH5alpha
[46] = tested on: Escherichia coli KCTC 2223
[47] = tested on: Micrococcus luteus ATCC 10240
[48] = tested on: Salmonella typhimurium KCTC 2370

CC[C@H](C)[C@H](NC(C)=O)C(=O)N[C@@H](Cc1cnc[nH]1)C(=O)NCC(=O)N[C@@H](CC(C)C)C(=O)N[C@H](C(N)=O)C(C)C [IHGLV]
MIC [1]: ≥ 186 µM

CC[C@H](C)[C@H](NC(=O)[C@@H]1CCCN1C(=O)[C@H](Cc1c[nH]c2ccccc12)NC(=O)[C@H](CCC(N)=O)NC(=O)[C@H](CCCN=C(N)N)NC(=O)[C@@H](NC(=O)[C@@H](NC(=O)[C@@H](N)CCCN=C(N)N)C(C)C)C(C)C)C(=O)NCC(=O)N[C@@H](CCCN=C(N)N)C(=O)N[C@H](C(=O)N[C@H](C(=O)N[C@@H](CCCN=C(N)N)C(=O)N[C@@H](CCCN=C(N)N)C(=O)N[C@H](C(=O)N[C@H](C(=O)N[C@@H](CCCN=C(N)N)C(=O)N[C@@H](CCCN=C(N)N)C(=O)N[C@H](C(=O)N[C@H](C(=O)N[C@@H](CCCN=C(N)N)C(=O)N[C@@H](Cc1ccc(O)cc1)C(=O)O)C(C)C)C(C)C)C(C)C)C(C)C)C(C)C)C(C)C [RVVRQWPIGRVVRRVVRRVVRY]
MIC [2]: 0.713 µM (≈ 2 µg/mL) | MIC [3]: 1.43 µM (≈ 4 µg/mL) | MIC [4]: 0.713 µM (≈ 2 µg/mL) | MIC [5]: 0.356 µM (≈ 1 µg/mL) | MIC [6]: 1.43 µM (≈ 4 µg/mL) | MIC [7]: 0.713 µM (≈ 2 µg/mL) | MIC [8]: 0.713 µM (≈ 2 µg/mL) | MIC [9]: 0.713 µM (≈ 2 µg/mL)

CC[C@H](C)[C@H](N)C(=O)N[C@@H](CCCCN)C(=O)N[C@@H](CCCCN)C(=O)N[C@H](C(=O)N[C@@H](CC(C)C)C(=O)N[C@@H](CO)C(=O)N[C@@H](CCCCN)C(=O)N[C@H](C(=O)N[C@@H](CCCCN)C(=O)N[C@@H](CCCCN)C(=O)N[C@@H](CC(C)C)C(=O)N[C@@H](CC(C)C)C(=O)N[C@@H](CCCCN)C(N)=O)[C@@H](C)CC)[C@@H](C)CC [IKKILSKIKKLLK]
MIC [10]: ≥ 100 µM | MIC [11]: ≥ 64.4 µM | MIC [12]: 6.25 µM (≈ 9.7 µg/mL) | MIC [13]: ≥ 32.2 µM | MIC [14]: 4.69 µM (≈ 7.28 µg/mL) | MIC [15]: 3.13 µM (≈ 4.86 µg/mL) | MIC [16]: 4.69 µM (≈ 7.28 µg/mL) | MIC [17]: 4.02 µM (≈ 6.25 µg/mL) | MIC [18]: 1.29 µM (≈ 2 µg/mL) | MIC [19]: 20.2 µM and 20.1 µM | MIC [20]: 3.13 µM (≈ 4.86 µg/mL) | MIC [21]: ≥ 32.2 µM | MIC [22]: 6.25 µM (≈ 9.7 µg/mL) | MIC [23]: 3.13 µM (≈ 4.86 µg/mL) | MIC [24]: 3.13 µM (≈ 4.86 µg/mL) | MIC [25]: ≥ 80.5 µM | MIC [26]: 5 µM (≈ 7.76 µg/mL) | MIC [27]: 5.02 µM (≈ 7.8 µg/mL) | MIC [28]: 5 µM (≈ 7.76 µg/mL) | MIC [29]: 5.02 µM and 8.05 µM | MIC [30]: ≥ 100 µM | MIC [31]: 5.02 µM and 8.05 µM | MIC [32]: 20.2 µM (≈ 31.3 µg/mL) | MIC [33]: ≥ 32.2 µM | MIC [34]: 6.25 µM (≈ 9.7 µg/mL) | MIC [35]: 5.02 µM and 4.02 µM | MIC [36]: 6.25 µM (≈ 9.7 µg/mL) | MIC [37]: 6.25 µM (≈ 9.7 µg/mL) | MIC [38]: 16.1 µM (≈ 25 µg/mL) | MIC [39]: ≥ 100 µM

CC[C@H](C)[C@H](NC(=O)[C@H](CCCCN)NC(=O)CNC(=O)[C@H](C)NC(=O)[C@@H](NC(=O)[C@H](CCCCN)NC(=O)[C@H](C)NC(=O)[C@@H](NC(=O)[C@H](CCCCN)NC(=O)CNC(=O)[C@H](C)NC(=O)[C@@H](NC(=O)[C@H](CCCCN)NC(=O)[C@H](C)NC(=O)[C@@H](NC(=O)[C@H](CCCCN)NC(=O)CNC(=O)[C@H](C)NC(=O)[C@@H](NC(=O)[C@@H](N)CCCCN)[C@@H](C)CC)[C@@H](C)CC)[C@@H](C)CC)[C@@H](C)CC)[C@@H](C)CC)C(=O)N[C@@H](C)C(=O)O [KIAGKIAKIAGKIAKIAGKIA]
MIC [40]: ≥ 62 µM | MIC [41]: 3.88 µM (≈ 8 µg/mL) | MIC [42]: ≥ 62 µM | MIC [43]: 7.75 µM (≈ 16 µg/mL) | MIC [44]: 3.88 µM (≈ 8 µg/mL) | MIC [45]: 7.75 µM (≈ 16 µg/mL)

CC(C)C[C@H](NC(=O)[C@H](CCCCN)NC(=O)[C@H](CCC(N)=O)NC(=O)[C@H](CCCCN)NC(=O)[C@H](CC(C)C)NC(=O)[C@H](CC(C)C)NC(=O)[C@H](CCC(N)=O)NC(=O)[C@H](CC(C)C)NC(=O)[C@H](CC(C)C)NC(=O)[C@@H]1CCCN1C(=O)[C@H](CCCN=C(N)N)NC(=O)[C@H](CC(C)C)NC(=O)[C@H](CC(C)C)NC(=O)[C@@H](N)CCCN=C(N)N)C(=O)N[C@@H](CCCN=C(N)N)C(=O)O [RLLRPLLQLLKQKLR]
MIC [46]: 16 µM (≈ 30.2 µg/mL) | MIC [47]: 1 µM (≈ 1.89 µg/mL) | MIC [48]: 8 µM (≈ 15.1 µg/mL) | MIC [8]: 1 µM (≈ 1.89 µg/mL)
